Experiment [1] deals with T1, myeloperoxidase (MPO) (Homo sapiens (Human), UniProt P05164). As to the kind of experiment: MPO peroxidation assay (Amplex Red assay). The experiment is classed as biochemical. The conditions noted are these: potency range class. In short, it runs like this:
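IC50 values come from a four-parameter fit of rates taken from the linear 180-540 s portion of a 15 min kinetic read of resorufin (Ex 535/Em 590 nm). Amplex Red (200 μM) plus 10 mM H2O2 was added after a 10 min room-temperature preincubation of inhibitor with 200 pM MPO and 40 nM H2O2 in 100 mM KPi, pH 7.4.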

Experiment [2] addresses T1, myeloperoxidase (MPO). The experiment in a line: MPO chlorination assay (APF assay). In kind it is biochemical. The conditions noted are these: potency range class. In short, it runs like this: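 Chlorinating activity followed by APF cleavage to fluorescein (485/535 nm, 3 min kinetic read) after adding APF and 10 μM H2O2. Beforehand, 200 pM enzyme, compound and 120 mM NaCl sat 10 min at room temperature in 100 mM KPi, pH 7.4. Initial-rate slopes gave % inhibition; IC50 by Hill-slope fit.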

The IC50 is the concentration at which inhibition is half-maximal. Low readings indicate higher potency, high ones lower potency.

T1 sequence (P05164 49-745): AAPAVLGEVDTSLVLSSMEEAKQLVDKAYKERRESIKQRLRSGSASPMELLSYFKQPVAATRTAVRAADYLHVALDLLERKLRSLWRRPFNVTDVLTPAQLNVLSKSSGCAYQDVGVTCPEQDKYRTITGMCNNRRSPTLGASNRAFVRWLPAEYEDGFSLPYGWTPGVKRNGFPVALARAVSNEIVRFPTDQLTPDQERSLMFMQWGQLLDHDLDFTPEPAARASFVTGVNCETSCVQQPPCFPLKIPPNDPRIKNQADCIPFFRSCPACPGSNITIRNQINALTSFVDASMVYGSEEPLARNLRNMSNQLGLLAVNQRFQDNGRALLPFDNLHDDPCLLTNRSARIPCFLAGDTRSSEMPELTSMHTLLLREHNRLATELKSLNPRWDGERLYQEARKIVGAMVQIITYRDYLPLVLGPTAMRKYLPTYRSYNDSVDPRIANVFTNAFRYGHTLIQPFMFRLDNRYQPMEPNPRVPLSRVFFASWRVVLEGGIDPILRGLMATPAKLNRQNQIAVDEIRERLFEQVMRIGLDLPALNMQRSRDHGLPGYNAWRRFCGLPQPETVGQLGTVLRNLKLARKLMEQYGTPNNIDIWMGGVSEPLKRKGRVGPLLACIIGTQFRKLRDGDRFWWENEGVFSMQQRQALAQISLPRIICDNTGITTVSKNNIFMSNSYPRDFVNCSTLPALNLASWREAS

For the molecule `CN(C)CC(=O)NCc1ccc(Cn2cc(Cc3cc(N)nc4[nH]nnc34)cn2)cc1` [Example 251, N-[(4-{[4-({5-Amino-3H-[1,2,3]triazolo[4,5-b]pyridin-7-yl}methyl)-1H-pyrazol-1-yl]methyl}phenyl)methyl]-2-(dimethylamino)acetamide], the IC50 in experiment [1] is 1 to 100 nM; in experiment [2], 101 to 999 nM.

Consider `CN1CCN(CC(=O)NCc2ccc(Cn3cc(Cc4cc(N)nc5[nH]nnc45)cn3)cc2)CC1` [Example 252, N-[(4-{[4-({5-Amino-3H-[1,2,3]triazolo[4,5-b]pyridin-7-yl}methyl)-1H-pyrazol-1-yl]methyl}phenyl)methyl]-2-(4-methylpiperazin-1-yl)acetamide], for which the IC50 in experiment [1] and in experiment [2] was 101 to 999 nM in each case.

In the case of `Nc1cc(Cc2cnn(Cc3ccc(CNC(=O)CN4CCCC4)cc3)c2)c2nn[nH]c2n1` [Example 253, N-[(4-{[4-({5-Amino-3H-[1,2,3]triazolo[4,5-b]pyridin-7-yl}methyl)-1H-pyrazol-1-yl]methyl}phenyl)methyl]-2-(pyrrolidin-1-yl)acetamide], the IC50 in experiment [1] and in experiment [2] was 101 to 999 nM in each case.

Regarding `Nc1cc(Cc2cnn(Cc3cccc(CN4CCCC4)c3)c2)c2nn[nH]c2n1` [Example 254, 7-[(1-{[3-(Pyrrolidin-1-ylmethyl)phenyl]methyl}-1H-pyrazol-4-yl)methyl]-3H-[1,2,3]triazolo[4,5-b]pyridin-5-amine], the half-inhibitory concentration (IC50) is 1 to 100 nM in experiment [1] and 101 to 999 nM in experiment [2].

Consider `CN(C)Cc1cccc(Cn2cc(Cc3cc(N)nc4[nH]nnc34)cn2)c1` [Example 255, 7-{[1-({3-[(Dimethylamino)methyl]phenyl}methyl)-1H-pyrazol-4-yl]methyl}-3H-[1,2,3]triazolo[4,5-b]pyridin-5-amine], for which the IC50 in experiment [1] and in experiment [2] was 1 to 100 nM in each case.

As for `Nc1cc(Cc2cnn(Cc3cccc(CN4CCOCC4)c3)c2)c2nn[nH]c2n1` [Example 256, 7-[(1-{[3-(Morpholin-4-ylmethyl)phenyl]methyl}-1H-pyrazol-4-yl)methyl]-3H-[1,2,3]triazolo[4,5-b]pyridin-5-amine], the IC50 in experiment [1] and in experiment [2] was 101 to 999 nM each time.

Turning to `Nc1cc(Cc2cnn(Cc3cccc([C@@H]4CNCCO4)c3)c2)c2nn[nH]c2n1` [Example 257, 7-{[1-({3-[(2R)-Morpholin-2-yl]phenyl}methyl)-1H-pyrazol-4-yl]methyl}-3H-[1,2,3]triazolo[4,5-b]pyridin-5-amine], the IC50 in experiment [1] and in experiment [2] was 1 to 100 nM each time.

Regarding `NCCN1Cc2ccc(Cn3cc(Cc4cc(N)nc5[nH]nnc45)cn3)cc2C1=O` [Example 258, 6-{[4-({5-Amino-3H-[1,2,3]triazolo[4,5-b]pyridin-7-yl}methyl)-1H-pyrazol-1-yl]methyl}-2-(2-aminoethyl)-2,3-dihydro-1H-isoindol-1-one], the IC50 in experiment [1] and in experiment [2] was 101 to 999 nM throughout.

For `Nc1cc(Cc2cnn(Cc3ccc4c(c3)C(=O)NCC4)c2)c2nn[nH]c2n1` [Example 259, 7-{[4-({5-Amino-3H-[1,2,3]triazolo[4,5-b]pyridin-7-yl}methyl)-1H-pyrazol-1-yl]methyl}-1,2,3,4-tetrahydroisoquinolin-1-one], the IC50 lay in the range of 1 to 100 nM in experiment [1] and 101 to 999 nM in experiment [2].

As for `Nc1cc(Cc2cnn(Cc3ccc4c(c3)C(c3ccccc3)CNC4)c2)c2nn[nH]c2n1` (centres unmarked) [Example 261, 7-({1-[(4-Phenyl-1,2,3,4-tetrahydroisoquinolin-6-yl)methyl]-1H-pyrazol-4-yl}methyl)-3H-[1,2,3]triazolo[4,5-b]pyridin-5-amine], the IC50 in experiment [1] and in experiment [2] was 1 to 100 nM each time.

`Nc1cc(Cc2cnn(Cc3ccc4c(c3)C(C(F)(F)F)NCC4)c2)c2nn[nH]c2n1` (centres unmarked) [Example 262, 7-[(1-{[1-(Trifluoromethyl)-1,2,3,4-tetrahydroisoquinolin-7-yl]methyl}-1H-pyrazol-4-yl)methyl]-3H-[1,2,3]triazolo[4,5-b]pyridin-5-amine]: the IC50 in experiment [1] and in experiment [2] was 101 to 999 nM throughout.

Regarding `Nc1cc(Cc2cnn(Cc3ccccc3OCc3ccccc3)c2)c2nn[nH]c2n1` [Example 263, 7-[(1-{[2-(Benzyloxy)phenyl]methyl}-1H-pyrazol-4-yl)methyl]-3H-[1,2,3]triazolo[4,5-b]pyridin-5-amine], the 50% inhibitory concentration (IC50) was 1 to 100 nM in experiment [1] and 101 to 999 nM in experiment [2].

In the case of `Nc1cc(Cc2cnn(Cc3ccccc3Oc3ccccc3)c2)c2nn[nH]c2n1` [Example 264, 7-({1-[(2-Phenoxyphenyl)methyl]-1H-pyrazol-4-yl}methyl)-3H-[1,2,3]triazolo[4,5-b]pyridin-5-amine], the IC50 in experiment [1] was 1 to 100 nM; in experiment [2] it was 101 to 999 nM.

`Nc1cc(Cc2cnn(Cc3ccccc3Cc3ccccc3)c2)c2nn[nH]c2n1` [Example 265, 7-({1-[(2-Benzylphenyl)methyl]-1H-pyrazol-4-yl}methyl)-3H-[1,2,3]triazolo[4,5-b]pyridin-5-amine]: the IC50 in experiment [1] and in experiment [2] was 1 to 100 nM in each case.

Turning to `Nc1cc(Cc2cnn(Cc3cccc4c3Cc3ccccc3-4)c2)c2nn[nH]c2n1` [Example 266, 7-{[1-(9H-Fluoren-1-ylmethyl)-1H-pyrazol-4-yl]methyl}-3H-[1,2,3]triazolo[4,5-b]pyridin-5-amine], the figures for the IC50 in experiment [1] and in experiment [2] were 1 to 100 nM and 101 to 999 nM, respectively.

`Nc1cc(Cc2cnn(Cc3ccc4c(c3)CCC[C@@H]4N)c2)c2nn[nH]c2n1` [Example 267, 7-[(1-{[(5S)-5-Amino-5,6,7,8-tetrahydronaphthalen-2-yl]methyl}-1H-pyrazol-4-yl)methyl]-3H-[1,2,3]triazolo[4,5-b]pyridin-5-amine]: the IC50 in experiment [1] and in experiment [2] was 1 to 100 nM in each case.

As for `Nc1cc(Cc2cnn(Cc3ccc4c(c3)CC[C@H]4N)c2)c2nn[nH]c2n1` [Example 268, 7-[(1-{[(1R)-1-Amino-2,3-dihydro-1H-inden-5-yl]methyl}-1H-pyrazol-4-yl)methyl]-3H-[1,2,3]triazolo[4,5-b]pyridin-5-amine], the IC50 in experiment [1] and in experiment [2] was 1 to 100 nM throughout.

Take `Nc1cc(Cc2cnn(Cc3ccc4c(c3)CCC[C@H]4N)c2)c2nn[nH]c2n1` [Example 269, 7-[(1-{[(5R)-5-Amino-5,6,7,8-tetrahydronaphthalen-2-yl]methyl}-1H-pyrazol-4-yl)methyl]-3H-[1,2,3]triazolo[4,5-b]pyridin-5-amine]: the 50% inhibitory concentration (IC50) in experiment [1] and in experiment [2] was 1 to 100 nM each time.

Take `Nc1cc(Cc2cnn(Cc3ccc4c(c3)CC[C@@H]4N)c2)c2nn[nH]c2n1` [Example 270, 7-[(1-{[(1S)-1-Amino-2,3-dihydro-1H-inden-5-yl]methyl}-1H-pyrazol-4-yl)methyl]-3H-[1,2,3]triazolo[4,5-b]pyridin-5-amine]: the half-maximal inhibitory concentration (IC50) in experiment [1] and in experiment [2] was 101 to 999 nM each time.

`N#Cc1ccc(Cn2cc(Cc3cc(N)nc4[nH]nnc34)cn2)cc1` [Example 271, 4-{[4-({5-Amino-3H-[1,2,3]triazolo[4,5-b]pyridin-7-yl}methyl)-1H-pyrazol-1-yl]methyl}benzonitrile]: the IC50 in experiment [1] was 1 to 100 nM; in experiment [2], 101 to 999 nM.

As to `N#Cc1ccc(Cn2cc(Cc3cc(N)nc4[nH]nnc34)cn2)cc1F` [Example 272, 4-{[4-({5-Amino-3H-[1,2,3]triazolo[4,5-b]pyridin-7-yl}methyl)-1H-pyrazol-1-yl]methyl}-2-fluorobenzonitrile], the IC50 in experiment [1] fell in the range of 1 to 100 nM; in experiment [2], 101 to 999 nM.

As for `Nc1cc(Cc2cnn(CCCC3CCNCC3)c2)c2nn[nH]c2n1` [Example 273, 7-({1-[3-(Piperidin-4-yl)propyl]-1H-pyrazol-4-yl}methyl)-3H-[1,2,3]triazolo[4,5-b]pyridin-5-amine], the IC50 in experiment [1] lay within 1 to 100 nM; in experiment [2] it was 101 to 999 nM.

Consider `Nc1cc(Cc2cnn(CC3CC4(CCNCC4)C3)c2)c2nn[nH]c2n1` [Example 274, 7-[(1-{7-Azaspiro[3.5]nonan-2-ylmethyl}-1H-pyrazol-4-yl)methyl]-3H-[1,2,3]triazolo[4,5-b]pyridin-5-amine], for which the values for the IC50 in experiment [1] and in experiment [2] were 1 to 100 nM and 101 to 999 nM, respectively.

Regarding `N#Cc1cc(Br)cc(Cn2cc(Cc3cc(N)nc4[nH]nnc34)cn2)c1` [Example 275, 3-{[4-({5-Amino-3H-[1,2,3]triazolo[4,5-b]pyridin-7-yl}methyl)-1H-pyrazol-1-yl]methyl}-5-bromobenzonitrile], the IC50 in experiment [1] lay within 1 to 100 nM; in experiment [2] it was 101 to 999 nM.

For the molecule `Nc1cc(Cc2cnn(Cc3cc(Cl)cc(-c4ccccc4)c3)c2)c2nn[nH]c2n1` [Example 276, 7-({1-[(3-Chloro-5-phenylphenyl)methyl]-1H-pyrazol-4-yl}methyl)-3H-[1,2,3]triazolo[4,5-b]pyridin-5-amine], the IC50 in experiment [1] and in experiment [2] was 101 to 999 nM in each case.

Regarding `Nc1cc(Cc2cnn(Cc3ccc(F)c(Br)c3)c2)c2nn[nH]c2n1` [Example 277, 7-({1-[(3-Bromo-4-fluorophenyl)methyl]-1H-pyrazol-4-yl}methyl)-3H-[1,2,3]triazolo[4,5-b]pyridin-5-amine], the IC50 in experiment [1] and in experiment [2] was 1 to 100 nM in each case.

For `Nc1cc(Cc2cnn(Cc3cccc(-c4c[nH]cn4)c3)c2)c2nn[nH]c2n1` [Example 278, 7-[(1-{[3-(1H-Imidazol-4-yl)phenyl]methyl}-1H-pyrazol-4-yl)methyl]-3H-[1,2,3]triazolo[4,5-b]pyridin-5-amine], the concentration for half-maximal inhibition (IC50) was 1 to 100 nM in experiment [1] and 101 to 999 nM in experiment [2].

Regarding `Cc1[nH]c(-c2ccccc2)nc1-c1cccc(Cn2cc(Cc3cc(N)nc4[nH]nnc34)cn2)c1` [Example 279, 7-[(1-{[3-(5-Methyl-2-phenyl-1H-imidazol-4-yl)phenyl]methyl}-1H-pyrazol-4-yl)methyl]-3H-[1,2,3]triazolo[4,5-b]pyridin-5-amine], the IC50 in experiment [1] was 1 to 100 nM; in experiment [2] it was 101 to 999 nM.

For the origin of these results see US10407422B2, “Triazolopyridine inhibitors of myeloperoxidase” (priority 2015, dated 2019).
